# Experimental data taken from patent publication US9890195B2, “MK2 inhibitor compositions and methods to enhance neurite outgrowth, neuroprotection, and nerve regeneration” (Purdue Research Foundation, priority 2009, dated 2018).
# Where no end group is shown, it is not given here.
# System: mixed cortical cultures comprising neurons, astrocytes, and microglia
# Assay: Immunocytochemistry/cell imaging of mixed cortical cultures treated with MK2i and TNF-α
# Type: cell-based, Sprague-Dawley rat
# Conditions: for morphological effects on neurons, astrocytes, microglia (FIG. 3): no TNF-α
# Procedure: The effect of MK2i on neuronal cell death and microglical activation was investigated by treating 1-week old mixed cortical cultures comprising neurons, astrocytes, and microglia with the MK2i peptide […] [SEQ ID NO: 33]. Primary Cortical Cell Culture
# Embryonic rat cortical tissue was obtained immediately following removal of embryos from the rat's abdomen. E17 Sprague-Dawley rat cortical tissue was placed in a 50 ml conical tube containing 5 ml of Solution 1 (NaCl 7.24 g/L; KCl 0.4 g/L; NaH2PO4 0.14 g/L; Glucose 2.61 g/L; Hepes 5.96 g/L; MgSO4 0.295 g/L; Bovine Serum Albumin 3 g/L). Under sterile conditions, 18 μl of trypsin solution (7.5 mg/ml in 0.9% saline) was added and tissue was passed through a 5-ml pipet several times to disassociate tissue. After the conical tube was placed in a 37° C. water bath for 20 minutes, 100 μl of trypsin inhibitor/DNAse solution (2.5 mg/ml trypsin inhibitor, 400 μg/ml DNase in 0.9% saline) was added to the tube and tissue was pipetted several times with a 5-ml pipet. Tissue was centrifuged at 1,000 rpm for 5 minutes at room temperature and supernatant was poured off. Cells were re-suspended in 16 ml of Hibernate E (BrainBits, Springfield, Ill.) and 100 μl of trypsin inhibitor/DNAse solution and pipetted up and down several times. Cells were filtered through a cell strainer and centrifuged at 1,400 rpm for 5 minutes at room temperature. Supernatant was poured off and cells were re-suspended in media. Primary cells were then plated in poly-D-lysine coated 96-well plates at a seeding density of 625,000 cells/cm^2 and incubated for 7-9 days at 37° C. After 7-9 days, cortical cells were treated with 5 ng/ml or 10 ng/ml of TNF-α to activate microglia. Cells then were treated with 0, 0.5, 1, or 3 mM MK2i peptide […] [SEQ ID NO: 33] for 4 hours, 8 hours, and 24 hours. After treatment, media was removed and stored at −20° C.
# In preparation for staining mixed cortical cells, cell media was replaced with phosphate-buffered 4% formaldehyde solution for 5 minutes, followed by three washes using HBHS solution (HEPES-buffered Hank's saline containing 10 mg/L sodium azide, pH 7.4). Blocking solution, consisting of 10% normal goat serum in HBHS, then was applied for 30 minutes, followed by three washes with HBHS. Microglia, astrocytes, and neurons were labeled using antibodies against ionized calcium binding adaptor molecule 1 (Iba1, Wako), glial fibrillary acidic protein (GFAP, Millipore), and β-3-tubulin (β3tub, Covance), respectively. Antibodies were applied for 2 hours, at a dilution of 1:400 in HBHS. After two 10 minute washes and one 30 minute wash, secondary antibodies were applied. […]
substance,measurement,setting,value
YARAAARQARAKALARQLGVAA-NH2 [MK2i],suppression of TNF-α-induced neuronal cell damage (FIG. 4),"5 ng/ml and 10 ng/ml TNF-α, 3 mM MK2i, which also resulted in neuronal cell damage",not maintained
same,"morphological effects on neurons, astrocytes, microglia (FIG. 3)",0.5 mM and 1.0 mM MK2i (below 3 mM),Minimal morphological effects
same,astrocyte damage (FIG. 6),3 mM MK2i,damage to astrocytes
same,"morphological effects on neurons, astrocytes, microglia (FIG. 3)",3 mM MK2i,"increased neuronal and astrocytic cell damage, as well as microglial proliferation"
